Source: paper PMC6278664, “Highly Cancer Selective Antiproliferative Activity of Natural Prenylated Flavonoids” (Molecules, 2018)
Where two headings read alike, the source gives them in different places.

Experiments:
[1] = cited from earlier work
[2] = system: PC-3 human prostate cancer cell line; test: SRB antiproliferative assay, PC-3; assay type: cell-based; details: for Selectivity index SIA, PC-3: IC50 HLMEC / IC50 PC-3; for Selectivity index SIB, PC-3: IC50 MCF-10A / IC50 PC-3; for IC50: SRB, 72 h, mean ± SD
Experimental: (§1) We determined the effect of various structural factors in the substrates on the antiproliferative activity against those selected to the study cell lines: the location and/or the presence of the prenyl group, the chalcone/flavanone skeleton and the presence of an O-methyl group at C-5 in flavanones. Flavonoids presented in Figure 1 were tested for the antiproliferative activity towards eight cancer cell lines including estrogen-dependent (MCF7 and T-47D) and two normal ones (HLMEC and MCF 10A). The in vitro antiproliferative activity was measured using SRB assay. The results are presented in Figure 2 (and in the supplement in Table S1). The antiproliferative activity was measured separately for each of the experiments and given as the average IC50 (the concentration of tested compound which inhibits 50% of the cells population). Cisplatin (CP), a common anticancer drug, was used as a positive control.
(§2) The following established in vitro cell lines were applied: MCF7, T-47D, MDA-MB-231 (human breast cancer cell line), A2780 (human ovarian cancer cell line), A2780cis (human cisplatin-resistant ovarian cancer cell line), PC-3 and DU 145 (human prostate cancer cell lines), HT-29 (human colon cancer cell line), HLMEC (human lung microvascular endothelial cell line), and MCF 10A (human mammary epithelial cells line).
(§3) The cell lines: MDA-MB-231, HT-29, PC-3, DU 145, and MCF 10A were obtained from the American Type Culture Collection (Rockville, MD, USA), MCF7, T-47D, A2780, A2780cis from the European Collection Cell Cultures (Sigma-Aldrich, Chemie GmbH, Steinheim, Germany), while the HLMEC cell line was obtained by M. Paprocka from the institute. All cell lines are being maintained in the Institute of Immunology and Experimental Therapy (Wrocław, Poland). DU 145 and MCF7 cells were cultured in Eagle medium (supplemented with 4mM L-glutamine, 10% fetal bovine serum, 1 mM sodium pyruvate for DU 145 cells or 2 mM L-glutamine, 1% mem non-essential amino acid solution and 8 µg/mL insulin and 10% fetal bovine serum for MCF7). […] HT-29 and T-47D cell lines were cultured in RPMI 1640 + OPTI-MEM medium supplemented with 2 mM L-glutamine, 5% fetal bovine serum and 8 µg/mL of insulin (T-47D) or 1 mM sodium pyruvate (HT-29). MDA-MB-231, PC-3 and HLMEC cell lines were cultured in RPMI 1640 medium supplemented with 2 mM L-glutamine and 10% fetal bovine serum. Medium for MCF 10A cell line consisted of F-12 nutrient mixture supplemented with cholera toxin (0.05 µg/mL), insulin (10 µg/mL), hydrocortisone (0.5 µg/mL), 5% horse serum, and EGFH (20 ng/mL). All the culture media contained antibiotics: 100 units/mL penicillin (Polfa Tarchomin SA, Warsaw, Poland), and 100 µg/mL streptomycin (Sigma-Aldrich, Chemie GmbH, Steinheim, Germany). All cell lines were grown at 37 °C with 5% CO2 humidified atmosphere.
(§4) Twenty-four hours before the incubation with the tested compounds, the cells were seeded in 96-plates (Sarstedt, Germany) at a density of 1 × 10^4 cells per well (0.75 × 10^4 per well for MCF7 and 1 × 10^3 per well for HLMEC) in 100 µL of a culture medium.
(§5) Each agent at each concentration (from 0.1 to 100 µg/mL) was tested in a single experiment, which was repeated four to five times. […] Cisplatin was used as a reference drug.
(§6) The results were calculated as the IC50 (inhibitory concentration 50%)—the concentration of the tested compound which inhibits 50% of the cells population. IC50 values were calculated for each experiment separately and mean values ± SD are presented in the Table S1 in the Supplementary Materials. Each compound at each concentration was tested in triplicate in a single experiment, which was repeated four to five times.
(§7) The cells were fixed in situ by gently adding cold 50% trichloroacetic acid (50 µL per well). The plates were incubated at 4 °C for 1h and then washed five times with tap water. […]

[3] = system: MDA-MB-231 human breast cancer cell line; test: SRB antiproliferative assay, MDA-MB-231; assay type: cell-based; details: for Selectivity index SIA, MDA-MB-231: IC50 HLMEC / IC50 MDA-MB-231; for Selectivity index SIB, MDA-MB-231: IC50 MCF-10A / IC50 MDA-MB-231; for IC50: SRB, 72 h, mean ± SD
Experimental: as §1, §2, §3, §4, §5, §6, §7

[4] = system: DU 145 human prostate cancer cell line; test: SRB antiproliferative assay, DU 145; assay type: cell-based; details: for Selectivity index SIA, Du-145: IC50 HLMEC / IC50 Du-145; for Selectivity index SIB, Du-145: IC50 MCF-10A / IC50 Du-145; for IC50: SRB, 72 h, mean ± SD
Experimental: as §1, §2, §3, §4, §5, §6, §7

[5] = system: HT-29 human colon cancer cell line; test: SRB antiproliferative assay, HT-29; assay type: cell-based; details: for Selectivity index SIA, HT-29: IC50 HLMEC / IC50 HT-29; for Selectivity index SIB, HT-29: IC50 MCF-10A / IC50 HT-29; for IC50: SRB, 72 h, mean ± SD
[6] = system: HLMEC human lung microvascular endothelial cell line; test: SRB antiproliferative assay, HLMEC (normal); assay type: cell-based; details: 72 h, mean ± SD
[7] = system: MCF7 human breast cancer cell line; test: SRB antiproliferative assay, MCF7; assay type: cell-based; details: for Selectivity index SIA, MCF-7: IC50 HLMEC / IC50 MCF-7; for Selectivity index SIB, MCF-7: IC50 MCF-10A / IC50 MCF-7; for IC50: SRB, 72 h, mean ± SD
Experimental: as §1, §2, §3, §4, §5, §6, §7

[8] = system: A2780cis human cisplatin-resistant ovarian cancer cell line; test: SRB antiproliferative assay, A2780cis; assay type: cell-based; details: for Selectivity index SIA, A-2780cis: IC50 HLMEC / IC50 A-2780cis; for Selectivity index SIB, A-2780cis: IC50 MCF-10A / IC50 A-2780cis; for IC50: SRB, 72 h, mean ± SD, read-out: Cancer cell line, IC50, A-2780cis
Experimental: as §1, §2, §3, §4, §5, §6, §7

[9] = system: MCF 10A human mammary epithelial cells line; test: SRB antiproliferative assay, MCF 10A (normal); assay type: cell-based; details: 72 h, mean ± SD, read-out: Normal cell line, IC50, MCF-10A
Experimental: as §1, §2, §3, §4, §5, §6, §7

[10] = system: T-47D human breast cancer cell line; test: SRB antiproliferative assay, T-47D; assay type: cell-based; details: for Selectivity index SIA, T-47D: IC50 HLMEC / IC50 T-47D; for Selectivity index SIB, T-47D: IC50 MCF-10A / IC50 T-47D; for IC50: SRB, 72 h, mean ± SD
Experimental: as §1, §2, §3, §4, §5, §6, §7

[11] = system: A2780 human ovarian cancer cell line; test: SRB antiproliferative assay, A2780; assay type: cell-based; details: for Selectivity index SIA, A-2780: IC50 HLMEC / IC50 A-2780; for Selectivity index SIB, A-2780: IC50 MCF-10A / IC50 A-2780; for IC50: SRB, 72 h, mean ± SD, read-out: Cancer cell line, IC50, A-2780
Experimental: as §1, §2, §3, §4, §5, §6, §7

Molecule	Selectivity index SIA, PC-3 [2]	Selectivity index SIB, PC-3 [2]	Selectivity index SIA, MDA-MB-231 [3]	Selectivity index SIB, MDA-MB-231 [3]	Selectivity index SIA, Du-145 [4]	Selectivity index SIB, Du-145 [4]	Selectivity index SIA, HT-29 [5]	Selectivity index SIB, HT-29 [5]	Selectivity index SIA, MCF-7 [7]	Selectivity index SIB, MCF-7 [7]	Selectivity index SIA, A-2780cis [8]	Selectivity index SIB, A-2780cis [8]	Selectivity index SIA, T-47D [10]	Selectivity index SIB, T-47D [10]	Selectivity index SIA, A-2780 [11]	Selectivity index SIB, A-2780 [11]	IC50 ([2]; Homo sapiens) [µM]	IC50 ([3]; Homo sapiens, MDA-MB-231) [µM]	IC50 ([4]; Homo sapiens, DU-145) [µM]	IC50 ([5]; Homo sapiens, HT-29) [µM]	further results
8-(3,3-dimethylallyl)-4,7-dihydroxy-5-methoxyflavanone [IXN]	0.23	1.35	0.29	1.66	0.21	1.22	0.41	2.36	0.75	4.31	1.07	6.19	0.47	2.70	1.58	9.09					Glucuronidation ([1]; in vivo): > 90%; IC50 [2]: 53.2 ± 10.6 µM; IC50 [3]: 43.3 ± 10.3 µM; IC50 [4]: 59.2 ± 5.73 µM; IC50 [5]: 30.6 ± 1 µM; IC50 [6]: 12.5 ± 5.65 µM; IC50 [7]: 16.7 ± 0.88 µM; IC50 [8]: 11.7 ± 1.44 µM; IC50 [9]: 72.1 ± 21.7 µM; IC50 [10]: 26.8 ± 6.44 µM; IC50 [11]: 7.93 ± 1.65 µM
COc1cc(O)c(CC=C(C)C)c(O)c1C(=O)CCc1ccc(O)cc1 [2HXN, 3′-(3,3-dimethylallyl)-4,2′,4′-trihydroxy-6′-methoxy-α,β-dihydrochalcone]	0.87	4.43	1.41	7.19	1.09	5.56	1.16	5.89	1.41	7.15	1.22	6.22	1.95	9.91	7.87	40.03	16.3 ± 5.22	10 ± 3.26	13 ± 4.2	12.2 ± 2.99	IC50 ([6]; Homo sapiens, Endothelial cell): 14.2 ± 4.24 µM; IC50 ([7]; Homo sapiens, MCF7, 72 h): 10.1 ± 2.31 µM; IC50 ([8]; Homo sapiens, A2780cis): 11.6 ± 3.36 µM; IC50 ([9]; Homo sapiens, MCF-10A): 72 ± 8.55 µM; IC50 ([10]; Homo sapiens, T47D): 7.27 ± 3.05 µM; IC50 ([11]; Homo sapiens, A2780): 1.8 ± 0.64 µM; SIA against A2780, times higher than the reference ([11]; ratio of SIA to SIA of cisplatin): 5-8 times
CC(C)=CCc1c(O)cc2c(c1O)C(=O)CC(c1ccc(O)cc1)O2 (stereo not drawn) [6PN, 6-(3,3-dimethylallyl)-5,7,4′-trihydroxyflavanone]	0.18	1.46	0.22	1.76	0.17	1.38	0.21	1.70	0.32	2.54	0.17	1.35	0.86	6.87	0.31	2.49	75.5 ± 29.8	62.6 ± 19.5	79.6 ± 8.89	64.6 ± 17.1	IC50 ([6]; Homo sapiens, Endothelial cell): 13.7 ± 5.16 µM; IC50 ([7]; Homo sapiens, MCF7, 72 h): 43.2 ± 4.37 µM; IC50 ([8]; Homo sapiens, A2780cis): 81.7 ± 17.7 µM; IC50 ([9]; Homo sapiens, MCF-10A): 110 ± 33 µM; IC50 ([10]; Homo sapiens, T47D): 16 ± 3.74 µM; IC50 ([11]; Homo sapiens, A2780): 44.2 ± 14.7 µM
CC(C)=CCc1c(O)cc(O)c2c1OC(c1ccc(O)cc1)CC2=O (stereo not drawn) [8PN, 8-(3,3-dimethylallyl)-5,7,4′-trihydroxyflavanone]	0.47	1.77	0.37	1.42	0.39	1.50	0.27	1.00	0.48	1.83	0.36	1.37	0.90	3.40	0.92	3.50	51.4 ± 11.3	63.8 ± 7.27	60.6 ± 6.66	89.8 ± 3.42	Glucuronidation ([1]; breast tissue study of Bolca and co-workers): > 90%; IC50 ([6]; Homo sapiens, Endothelial cell): 23.9 ± 10.9 µM; IC50 ([7]; Homo sapiens, MCF7, 72 h): 49.5 ± 7.36 µM; IC50 ([8]; Homo sapiens, A2780cis): 66.4 ± 10.1 µM; IC50 ([9]; Homo sapiens, MCF-10A): 90.7 ± 19.8 µM; IC50 ([10]; Homo sapiens, T47D): 26.7 ± 9.7 µM; IC50 ([11]; Homo sapiens, A2780): 25.9 ± 8.32 µM
N.N.[Cl][Pt][Cl] [Cisplatin (CP), Cisplatin, reference compound]																					IC50 [2]: 11.4 ± 2.23 µM; IC50 [3]: 16.9 ± 5.45 µM; IC50 [4]: 2.73 ± 1.32 µM; IC50 [5]: 9.56 ± 3.75 µM; IC50 [6]: 0.93 ± 0.28 µM; IC50 [7]: 6.29 ± 1.05 µM; IC50 [8]: 12.1 ± 1.27 µM; IC50 [9]: 13.6 ± 4.93 µM; IC50 [10]: 22.2 ± 7.32 µM; IC50 [11]: 0.97 ± 0.46 µM
O=C1C[C@@H](c2ccc(O)cc2)Oc2cc(O)cc(O)c21 [NG, Naringenin, reference compound]	0.68	1.09	0.71	1.13	0.88	1.40	0.90	1.43	0.90	1.43	1.07	1.71	1.12	1.79	1.17	1.87	171 ± 28.8	166 ± 82.4	134 ± 12.9	131 ± 28.2	IC50 ([6]; Homo sapiens, Endothelial cell): 117 ± 32.3 µM; IC50 ([7]; Homo sapiens, MCF7, 72 h): 131 ± 6.11 µM; IC50 [7]: 187 ± 72.4 µM; IC50 ([8]; Homo sapiens, A2780cis): 109 ± 17 µM; IC50 ([9]; Homo sapiens, MCF-10A): 187 ± 72.4 µM; IC50 ([10]; Homo sapiens, T47D): 105 ± 48.3 µM; IC50 ([11]; Homo sapiens, A2780): 100 ± 4.77 µM
